From patent US7632863B2, “3,4,5,4′-tetramethoxyl-α,β-diphenylethane-3′-O-sodium sulphate and its use” (The Jian Cell Biomedical Research Co., Ltd., priority 2007, dated 2009)
Where two headings read alike, the source gives them in different places.

Tests used:
S180 sarcoma [1] = conditions: Dosage 1 mg/kg, i.v., S180 sarcoma-bearing mice
Description: (§1) (1) Sample: 3,4,5,4′-tetramethoxyl-α,β-diphenylethane-3′-O-sodium sulphate (AS) provided by Zhejiang Cell Biomedical Research Co., Ltd., and prepared by the process in Example One. Dissolved by physiological saline for the concentration needed.
(2) Cisplatin: Cisplatin for injection (DDP), Qilu Pharmaceutical Co., Ltd. Batch No.: 5120282DC. Dissolved by physiological saline for preparation.
(3) Control product: Cyclophosphamide for injection (CTX), Jiangsu Hengrui Pharmaceutical Inc. Co. Batch No.: 04123021 Dissolved by physiological saline for preparation.
(§2) (1) KM mouse bearing S180 sarcoma.
(2) 70 KM mice, female, weighting 18-22 g, provided by Zhejing College of Traditional Chinese Medicine.
(1) Drawing ascites under aseptic condition from mouse bearing S180 sarcoma, diluting with physiologic saline 1:3, giving subcutaneous inoculation in the armpit of the right forelimb of the KM mice with 0.2 ml each; dividing the mice into 7 groups randomly the next day, 10 in each group.
(§3) (2) Administering drug to the mice by weight the third day of inoculation, intravenous administration 0.5 ml/20 g […], by weight, and putting them to death on the 11th day after inoculation, weighing the tumor and calculating the rate of tumor inhibition.
(§4) (3) dosage (mg/kg/d) and means of administration:
(§5) AS: 50 mg/kg, tail vein injection
(§6) AS: 100 mg/kg, tail vein injection
(§7) AS: 200 mg/kg, tail vein injection
DDP: 1 mg/kg, tail vein injection
AS+DDP: 50 mg/kg+1 mg/kg, tail vein injection
(§8) CTX: 30 mg/kg, tail vein injection
(§9) Setting up another blank control group, tail vein injection of 0.9% NaCl 0.5 ml.
(§10) (4) Judging the result with the following formula: […]

S180 sarcoma [2] = conditions: Dosage 1 mg/kg, i.v., S180 sarcoma-bearing mice; remark: listed apart in the source
Description: as §1
(2) Control product: Cyclophosphamide for injection (CTX), Jiangsu Hengrui Pharmaceutical Inc. Co. Batch No.: 04123021 Dissolved by physiological saline for preparation.
as §2
(2) 50 KM mice, female, weighting 18-22 g, provided by Zhejing College of Traditional Chinese Medicine.
(1) Drawing ascites under aseptic condition from mouse bearing S180 sarcoma, diluting with physiologic saline 1:3, giving subcutaneous inoculation in the armpit of the right forelimb of the KM mice with 0.2 ml each; dividing the mice into 5 groups randomly the next day, 10 in each group.
as §3, §4, §5, §6, §7, §8, §9, §10

Lewis lung cancer = experiment: Joint administration of AS and DDP, murine model of Lewis lung cancer (Example Five); type: in vivo, C57BL/6J mice; conditions: Dosage 30 mg/kg, i.p., mice bearing Lewis lung cancer
Description: (1) Sample: 3,4,5,4′-tetramethoxyl-α,β-diphenylethane-3′-O-sodium sulphate (AS), raw material medicine, provided by Zhejiang Cell Biomedical Research Co., Ltd., and prepared by the process in Example One. Batch No.: 061025. Dissolved by physiological saline for the concentration needed.
(2) Cisplatin: Cisplatin for injection (DDP), Qilu Pharmaceutical Co., Ltd. Batch No.: 5120282DC; Dissolved by physiological saline for preparation
(3) Control product: Cyclophosphamide for injection (CTX), Jiangsu Hengrui Pharmaceutical Inc. Co. Batch No.: 04123021. Dissolved by physiological saline for preparation.
(1) C57BL/6J mouse bearing Lewis lung cancer
(2) 70 C57BL/6J mice, female, weighing 17-21 g. Provided by the animal house of Zhejiang Cell Biomedical Research Co., Ltd.
(1) Taking tumor from C57BL/6J mouse under aseptic condition, grinding and diluting it by physiological saline 1:3 (weight:volume), and giving hypodermic inoculation 0.2 ml per mouse in the armpit of the right forelimb of each mouse. dividing the mice into 7 groups randomly the next day, 10 in each group.
(2) After inoculation, waiting till the tumor has grown to the accessible size, administering medicine according to body weight, 0.5 ml/20 g intravenous, for 11 days, putting the mice to death on the 19th after inoculation, taking out and weighing the tumor, and calculating the tumor inhibiting rate.
as §10

[3] = background statement, species and route not given; cited from earlier work

With `O=P1(N(CCCl)CCCl)NCCCO1` (centres unmarked) [CTX, Cyclophosphamide, reference compound] the 0 d weight (S180 sarcoma [1]) was 21.18 ± 0.64 g, the “11 d weight without tumor” value (S180 sarcoma [1]) was 26.28 ± 1.72 g and the “Tumor inhibiting rate %” value (S180 sarcoma [1]) was 69%. For the same compound, the Tumor weight (S180 sarcoma [1]) was 0.90 ± 0.26 g, the 0 d weight (S180 sarcoma [2]) was 21.18 ± 0.64 g and the “11 d weight without tumor” value (S180 sarcoma [2]) was 26.28 ± 1.72 g. For the same compound, the “Tumor inhibiting rate %” value (S180 sarcoma [2]) was 69%, the Tumor weight (S180 sarcoma [2]) was 0.90 ± 0.26 g and the “Tumor inhibiting rate %” value (Lewis lung cancer) was 64.3%. For the same compound, the Tumor weight (Lewis lung cancer) was 1.68 ± 0.15 g.
In the case of `COc1ccc(/C=C\c2cc(OC)c(OC)c(OC)c2)cc1O` [Combretastatin A-4], the LD50 [3] is listed as 500 mg/kg.
